# Tests used:
# [1] = Single dose i.p. bolus liver levels / liver targeting in mice
# Procedure: At specified times post injection, mice were anesthetized and exsanguinated via cardiac puncture. The whole liver was removed, and snap-frozen in liquid nitrogen, and homogenized using a Polytron homogenizer PT 10/35 (Brinkmann Instruments, Westbury, N.Y.) in 3 volumes of 10% (v/v) perchloric acid (PCA). After a 5 min centrifugation at 2,500×g, 1 mL of supernatant was neutralized using 0.3 mL 3 M KOH/3 M KHCO3 and mixed thoroughly. Samples were then centrifuged for 5 minutes and resulting supernatants were treated with periodate in order to remove endogenous ribonucleotides which otherwise might interfere with araCTP detection. […] Resulting samples were analyzed by HPLC as described below.
# To measure bone marrow araCTP, the bone marrow samples were flushed from the marrow cavities of femurs with 1.2 ml saline into pre-weighed Eppendorf tubes. After centrifugation for 20-30 seconds (Eppendorf microfuge, 14,000 rpm) and removal of the supernatant, 12 volumes of 3% PCA (v/v) were added to the bone marrow cell pellets. Samples were then vortexed until the pellet was well dissolved and centrifuged as above for 10 min. Ninety μL of extracted supernatant was neutralized to pH 7-8 using 30 μL 1 M KOH/1 M KHCO3 and again centrifuged. Resulting supernatants were periodate-treated as above.
# Samples (50 μL) were injected onto the column in 70% 10 mM ammonium phosphate buffer and 30% 1 M ammonium phosphate buffer, both at pH 3.5 and containing 6% ethanol. […] A standard curve was prepared by adding known amounts of araCTP into PCA extracts from control liver or bone marrow prior to neutralizing, and preparing HPLC samples accordingly.
# To obtain plasma, blood was transferred to heparinized micro-collection tubes and centrifuged in an Eppendorf microfuge at 14,000 rpm for 2 minutes. Resulting plasma was collected, placed on dry ice, and subsequently stored at −20° C. On the day of analysis, proteins were precipitated by adding 1 mL acetonitrile to 100 μL of plasma. After 10 min centrifugation (Eppendorf microfuge, 14,000 rpm), the supernatant was removed and dried in a Savant SpeedVac Plus SC110A. Samples were reconstituted with 110 μL of mobile phase buffer (20 mM KH2PO4, pH 4.5), sonicated for 5 min, and centrifuged for 30 seconds. […] AraC and prodrugs were detected by absorbance at 280 nm and quantitated using standard curves obtained with spiked plasma samples processed as above.
# Results are expressed as mean±standard error of the mean. Data were analyzed by repeated measures ANOVA, followed by the Tukey HSD post-hoc test for comparisons at individual time points when appropriate. A p-value of less than 0.05 was considered statistically significant. Dotted lines in figures indicate LOQ (limit of quantitation) using the indicated HPLC method.
# (§1) In those studies, liver, plasma and bone marrow samples were obtained at necropsy to evaluate liver targeting.
# (§2) Results are expressed as mean±standard error of the mean. When appropriate, AUC was calculated from time zero to the last time-point of the study. Liver targeting indices (LTIs) were calculated by dividing the liver araCTP AUC by the AUC for plasma araC (plasma LTI) or by the AUC for bone marrow araCTP (bone marrow LTI) for each compound. For the continuous infusion studies, the steady state araCTP levels were divided by the steady state plasma araC levels.
# [2] = Liver araCTP and liver targeting with continuous i.v. infusion in rats
# From the text: A saline filled blunt PE-50 tubing catheter (Intramedic, Becton Dickinson, Sparks, Md.) was inserted into the jugular vein, exteriorized between the scapulae and connected to a swivel-tethering constant infusion system (Lomir Biomedical, Inc., Malone, N.Y. and Harvard Apparatus, Inc., South Natick, Mass.). The tubing was filled with heparinized saline and sealed, and the animals allowed to recover for one to seven days.
# After the various durations of infusion the animals were anesthetized by intra-catheter injections of the anesthetic mix described above. Blood samples were obtained via cardiac puncture using a 23-gauge needle attached to a heparin coated 3 cc syringe.
# as §1, §2
# [3] = Aqueous stability; assay type: physicochemical; conditions: 50 μM
# Procedure: Diluted solutions (50 μM) were incubated at 37° C. in a Fisher Scientific dry bath incubator (catalog # 11-718-2) with samples collected every 24 hours and stored at −80° C. Plasma samples (100 μL) were quenched with 1 mL of acetonitrile. […] Samples were resuspended in 120 μL of mobile phase buffer before HPLC injection.
# Samples were analyzed on an HP1090 or HP1100 (Hewlett Packard) HPLC using a C-18 Alltech Econosphere column, 150 mm×4.6 mm (catalog # 70065), with a C-18 Alltech Econosphere guard column, 7.5 mm×4.6 mm (catalog # 96121). Samples were eluted with a methanol gradient: 0% for 5 minutes, then increasing to 10% at 10 minutes, 30% at 20 minutes, and 60% at 25 minutes. The column was allowed to equilibrate in 0% methanol for 10 minutes before the next injection. The flow rate was 1 mL/minute with a column temperature of 40° C. Prodrugs eluted around 19.5 minutes and were monitored by UV absorbance at 280 nm. For prodrugs in aqueous conditions, the same method was employed except the methanol gradient was as follows: 0% for 5 minutes, increasing to 10% at 10 minutes, and 30% at 20 minutes with prodrug eluting around 20 minutes.
# [4] = Solubility; assay type: physicochemical
# Procedure: With each of the three buffer systems, saturating solutions of Compound A and Compound B were prepared as follows. […] The resultant vials were sealed and equilibrated by tumbling at 25° C. for a minimum of 24 h. At the end of the incubation period, prodrug that was not in solution was removed from the samples by filtration through a 0.45 μm pore size nylon syringe filter. These diluted samples were assayed by the HPLC method of example E.
# [5] = tested on: human liver microsomes; assay: Enzyme kinetics of prodrug activation to araCMP in human liver microsomes; conditions: activation to araCMP
# [6] = Mouse 5-day safety pharmacology; assay type: in vivo; conditions: mice
# Procedure: AraC was purchased from Sigma Chemical Co. (St. Louis, Mo., catalog # C1768, lot # 39H5962). Compound C and araC were dissolved in sterile physiological saline. Stock solutions were prepared daily from pre-weighed drug. All but the highest concentrations were prepared by diluting the stock solutions using additional sterile saline. Any drug not used immediately was refrigerated and used within 24 hours. All prodrugs were dosed in cytarabine molar equivalents (CE).
# Male NIH Swiss Webster mice (25 to 33 g body weight, Harlan Sprague Dawley, Indianapolis, Ind.) were injected i.p. with Compound C, araC or vehicle once a day on days 0-4, approximately 3 to 4 hours following the beginning of the vivarium light cycle. Doses for Compound C were 1000, 300, 100 and 30-mg/kg nucleoside equivalents/day (equal to 1848, 554, 185 and 55.4 mg/kg/day) whereas araC was administered at 100, 30, 10 and 3 mg/kg/day. The vehicle was saline. Body weights were recorded on days 0-4 immediately prior to compound administration and on day 5 prior to sacrifice. All mice were sacrificed on day 5 (23-25 hours following the last i.p. dose) by exsanguination under halothane anesthesia, and subsequent cervical dislocation. The blood from each animal was analyzed for blood chemistry and hematology parameters as described in Example H. Livers were excised and fixed in neutral-buffered 10% formalin, and bone marrow was flushed from the right femur using 1 ml PBS without calcium or magnesium and nucleated cell counts measured as in Example H.
# EDTA-treated blood samples were submitted to LabCorp (LabCorp, San Diego, Calif.) for hematology analysis including erythrocyte and platelet numbers, hemoglobin, and hematocrit. Serum chemistry analysis was also performed by LabCorp. Tissue specimens from mice treated with vehicle or 100 mg/kg araC or 1000 mg/kg CE Compound C were coded and shipped in formalin to Comparative Biosciences (Mountain View, Calif.) for preparation of hematoxylin/eosin-stained tissue sections and histopathology evaluation. Specimen codes for the histopathology studies were: #1-7, Compound C 1000 mg/kg/day; #33-40, araC 100 mg/kg/day; #65-72, Saline vehicle.
# Results are expressed as mean±standard error for 5-8 animals per dose group. For selected hematology parameters, data for each animal were also presented as a % of the mean of the vehicle group. Statistical analysis was performed by one-way ANOVA followed by Dunnett's post-hoc test for differences between a control group and multiple dose groups. A p-value of less than 0.05 was considered statistically significant.
# [7] = rats, 200 mg CE/kg/day continuous intravenous infusion
smiles,measurement,setting,value
"Nc1ccn([C@@H]2O[C@H](CO[P@]3(=O)OCC[C@H](c4ccncc4)O3)[C@@H](O)[C@@H]2O)c(=O)n1 [Compound B, 2(1H)-Pyrimidinone, 4-amino-1-[5-O-[(2S,4R)-2-oxido-4-(4-pyridinyl)-1,3,2-dioxaphosphorinan-2-yl]-β-D-arabinofuranosyl]]",Liver araCTP Peak @ 1 hr,"[1]; Mouse, 100 mg (cytarabine equivalents)/kg single IP injection",27 nmol/g
same,LTI (Liver/plasma),"[1]; Mouse, 100 mg CE/kg single IP, liver araCTP AUC / plasma araC AUC",19.6 nmol/g/μM
same,reduction of peripheral exposure (liver targeting),[1]; administered intraperitoneally,~20 fold
same,liver araCTP peak at 60 minutes post injection,"[1]; mice, single i.p. bolus, 100 mg/kg CE",27.00 ± 4.04 nmol/g
same,reduction of peripheral exposure (liver targeting),[2]; administered by continuous intravenous infusion,~10 fold
same,LTI @ 24 hrs (Liver/plasma),[2]; [7],>12 nmol/g/μM
same,Liver araCTP 24 hr,[2]; [7],5.9 nmol/g
same,Liver araCTP @ 4 hr,[2]; [7],6.4 nmol/g
same,Plasma Prodrug steady state,[2]; [7],25 to 35 µM
same,Plasma araC steady state,[2]; [7],<0.5 µM
same,liver araCTP compared with Compound A,"[2]; rats, continuous infusion 200 mg/kg/24 hours CE",less araCTP in the liver than Compound A
same,t90 in aqueous solution,"[3]; 100 mM Pi, pH 7.4, 37° C",4 days
same,t90 in aqueous solution,"[3]; 100 mM citrate, pH5.0, 37° C",1.7 days
same,solubility,"[4]; 0.5 M Pi pH 8.0 buffer, 25° C",10.2 mg/mL
same,solubility,"[4]; 0.5 M citrate pH 4.0, 25° C",94.6 mg/mL
same,solubility,"[4]; 0.5 M citrate pH 7.0, 25° C",9.0 mg/mL
same,Vmax,"[5]; 2 mg/mL human liver microsomes lot RQX, 1 mM NADPH, pH 7.4, 37° C, 5 min",0.13 ± 0.02 nmol/min/mg
same,Km,[5]; human liver microsomes lot RQX,3.13 ± 0.51 mM
"Nc1ccn([C@@H]2O[C@H](CO)[C@@H](O)[C@@H]2O)c(=O)n1 [AraC, 1-(β-D-Arabinofuranosyl)cytosine]",AUC(0-t),"[1]; male, Swiss Webster, mouse, plasma, ip, 100 mg (cytarabine equivalents)/kg",121 µM·h
same,Plasma araC steady state,"[2]; rats, AraC at 2000 mg/kg/day continuous infusion",~300 µM
same,"histopathology of liver, kidney and small intestine",[6]; 100 mg/kg araC or 1000 mg/kg CE Compound C,no toxicologically relevant histopathologic changes
same,hepatotoxicity,[6]; 5-day repeated dose,No hepatotoxicity was observed
same,"number of nucleated bone marrow cells, circulating PMNs, mononuclear cells, and platelets",[6]; 30 and 100 mg/kg/day i.p. for 5 days,significantly decreased
same,"red blood cell parameters (erythrocyte numbers, hematocrit, hemoglobin)","[6]; 5 days i.p., araC 30 and 100 mg/kg/day","lowered erythrocyte numbers, hematocrit, and hemoglobin significantly"
same,Creatinine,[6]; araC 100 mg/kg/day,lowered
same,"bone-marrow cellularity, % of that in vehicle-treated animals",[6]; araC 100 mg/kg/day i.p. for 5 days,11%
same,effect on body weight,"[6]; daily i.p. 5 days, highest dose: araC 100 mg/kg/day, Compound C 1000 mg/kg/day of nucleoside equivalents",progressive and statistically significant drop in body weight
same,Alkaline phosphatase,[6]; highest dose of araC (100 mg/kg/day),significantly decreased
same,Glucose,"[6]; araC 30 and 100 mg/kg/day, Compound C 1000 mg/kg/day",lowered

# — patent US7553826B2, “Cytarabine monophosphate prodrugs” (Metabasis Therapeutics, Inc., priority 2002, dated 2009)
